Test results from PMC7956476, “Quinoline Functionalized Schiff Base Silver (I) Complexes: Interactions with Biomolecules and In Vitro Cytotoxicity, Antioxidant and Antimicrobial Activities” (Molecules, 2021).
Read-outs that look alike come from different tables or passages of the source.

Experiments:
[1] = tested on: Escherichia coli ATCC 25922; assay: Minimum inhibitory concentration (MIC), spotting on Müeller–Hinton agar; type: cell-based; conditions: Gram − Ve, E. coli, 37 °C, 18 h
Method: (§1) Sterilized Nutrient agar medium was first prepared by dissolving 38 g of Müeller–Hinton agar (MHA) (Biolab, Midrand, Africa) in distilled water (1 L). […] The cooled Agar medium was poured in Petri dishes while ensuring a uniform 4 mm depth of the medium and cooling further to ambient temperature.
(§2) These bacteria were inoculated in a sterilized Nutrient Broth (NB) (Biolab, Midrand, Africa) through streak plate technique and incubated at 37 °C for 18 h. The nutrient broth was sterilized by dissolving 1.3 g in distilled water (100 mL). Ca. 10 mL of the nutrient broth was transferred into a cotton wool-plugged test tubes and wrapped with an aluminium foil. […] Following this was the isolation of a single colony of the bacteria and inoculated into a 10 mL sterile NB which was then incubated in a shaking incubator at 37 °C for 18 h. Each of the bacteria strain concentrations was adjusted with sterile distilled water to get a final concentration of 1.5 × 10^8 cfu/mL, i.e., 0.5 Mc Farland’s Standard using a densitometer (Mc Farland Latvia). The bacteria were lawn inoculated on the set MHA Petri dishes using a sterile cotton swab. Screening of L1–L5 and Q1–Q15 for antibacterial activity was first carried out by spotting 5 µL of their solution (prepared from the dissolution of 1000 µg of the L1–L5 and Q1–Q15 in 1 mL dimethyl sulfoxide (DMSO)) on an MHA petri dish and incubated at 37 °C for 18 h. The antibacterial activity was determined by looking out for a clear zone at the spotting point.

[2] = tested on: Pseudomonas aeruginosa ATCC 27853; assay: as above; type: cell-based; conditions: Gram − Ve; P. aeruginosa; 37 °C, 18 h
Method: as §1, §2

[3] = tested on: Salmonella typhimurium ATCC 14026; assay: as above; type: cell-based; conditions: Gram − Ve; S. typhi; 37 °C, 18 h
Method: as §1, §2

[4] = tested on: Staphylococcus aureus ATCC 25923; assay: as above; type: cell-based; conditions: Gram + Ve, S. aureus, 37 °C, 18 h
Method: as §1, §2

[5] = tested on: Staphylococcus aureus ATCC 700699 (methicillin-resistant); assay: as above; type: cell-based; conditions: Gram + Ve; methicillin-resistant S. aureus; 37 °C, 18 h
Method: as §1, §2

[6] = Ferric reducing antioxidant power (FRAP) assay; type: biochemical; conditions: done in triplicate
Description: Antioxidants are important in protecting the human body against damage by reactive oxygen species (ROS). Accumulation of ROS in the cells may lead to damage of the DNA, RNA, and proteins which subsequently leads to several physiological disorders such as cardiovascular disease, diabetes, rheumatism, atherosclerosis, cancer, aging and cell death. […] The free radical scavenging ability of all ligands and complexes in this study were investigated using ferric reducing antioxidant power (FRAP). In antioxidant studies, FRAP assay is often preferred because it is simple, fast, economical, and direct in antioxidant measurement. FRAP assay is based on the electron-donating ability of an antioxidant compound. This involves the reduction of a colorless Fe^3+ tripyridyltriazine complex (Fe^3+ (TPTZ)) to an intense blue-colored Fe^2+ tripyridyltriazine complex (Fe^2+ (TPTZ)) by the electron-donating antioxidants at low pH [69]. The reducing power is to determine the reductive ability of the test compounds.
Antioxidant activity studies of L1–L5 and Q1–Q15 were done using ferric reducing antioxidant power (FRAP) assay. The ferric reducing antioxidant power assay is often used to evaluate the ability of an antioxidant to donate an electron. […] The resulting mixture was incubated at 50 °C for 20 min, and 2.5 mL of 10% trichloroacetic acid was added to acidify the mixture. After that, 1 mL of the acidified mixture was added to 1 mL of distilled water and 0.5 mL of 0.1% FeCl3. The absorbance of the resulting solution was then measured at 700 nm. The antioxidant power of the compounds was expressed as a percentage of ferric reducing antioxidant power Ascorbic acid equivalent, as shown in Equation (4). (4) % FRAP =Absorbance of Absorbance of Sample/Absorbance of Ascorbic Acid ×100

[7] = tested on: calf thymus DNA (CT-DNA); assay: CT-DNA electronic absorption titration (Wolfe–Shimer); type: binding
Method: The interaction of the L1–L5 and complexes Q1–Q15 with calf thymus-DNA was carried out in a Phosphate buffer saline solution pH 7.2 stored at 4 °C. The DNA stock solution was prepared by dissolving CT-DNA sodium salt in Phosphate buffer saline solution with continuous stirring overnight. It was filtered and stored at 4 °C and used within four days. […] A fixed amount of the L1–L5 and complexes Q1–Q15 (50 µM) were prepared by dissolving an appropriate amount in DMSO. […] Therefore, in all the experimental of the interaction of L1–L5 and complexes Q1–Q15 with biomolecules, the final concentration of DMSO in the incubation mixture was ~2% (v/v).
The binding modes of L1–L5 and complexes Q1–Q15 to CT-DNA were characterized through electronic absorption titration by varying concentrations of CT-DNA (0–30 µM) in phosphate buffer saline solution against fixed concentrations (20 µM) of L1–L5 and complexes Q1–Q15. […] The absorbance of CT-DNA is cancelled by adding equivalent amounts of CT-DNA to both the tested compounds and the reference solutions.

[8] = tested on: CT-DNA-EB adduct; assay: Fluorescence competitive displacement of ethidium bromide from CT-DNA; type: binding, calf; conditions: for CT-DNA-EB-Complex Ksv (M^−1) × 10^4: Stern–Volmer quenching constant, 25 °C; for CT-DNA-EB-Complex Kq (M^−1S^−1) × 10^12: bimolecular quenching constant, Ksv = Kqτo, τo 10^−8 s; for CT-DNA-EB-Complex Kbin (M^−1) × 10^5: binding constant from double-logarithmic plot
Description: The Stern–Volmer plot approach was used based on the fact that the Stern–Volmer plots for Q1–Q15 (Figure 5c), were linear an indication of only one mechanism for the quenching fluorescence, i.e., either dynamic or static. […] (1) Ksv=Kqτo where Ksv, Kq, and τo represent Stern–Volmer quenching constant, bimolecular quenching constant, and an average lifetime of the fluorophore in the absence of the quencher, respectively. τₒ normally takes about 10^−8 s in biomacromolecules.
The double-logarithmic Equation (2) was used in determining the binding constant of complexes Q1–Q15 and CT-DNA. (2) logFo−F/F=logKb+n logQ
A competitive displacement study was carried out using fluorescence spectroscopy between CT-DNA pre-treated with ethidium bromide (EB) and complexes Q1–Q15 to establish the complexes′ actual mode of binding to CT-DNA. […] The competitive luminescence displacement assay was done using a modified method. Pre-treated 15 µM solution of EB with 15 µM of CT-DNA was prepared in a phosphate buffer of pH 7.2 and left to equilibrate for 30 min. Keeping CT-DNA-EB concentrations constant, different concentrations (0–20 µM) of the complexes were added at 8 min incubation interval at room temperature. The fluorescence quenching ability of CT-DNA bound EB by the complexes were recorded in the wavelength range of 530–700 nm with an excitation wavelength at 525 nm at 25 °C. (6) Fo/F=1+KSVQ=1+KqτoQ
A Stern–Volmer (Equation (6)) was used to evaluate the CT-DNA-EB fluorescence quenching of the complexes. Where Fo and F denote the relative fluorescence intensities of CT-DNA in the absence and presence of the quencher, Ksv, Stern–Volmer quenching constant, [Q], quencher concentration, Kq, bimolecular quenching constant and τo, average lifetime of the fluorophore in the absence of the quencher which is typically equal to 10^−8 s in biomacromolecules.

[9] = biological target: bovine serum albumin (BSA) (Bos taurus, UniProt P02769); assay: Albumin binding by absorption spectroscopy titration
Description: Bovine serum albumin (BSA) was used as the protein standard in this study because of its close resemblance to human serum albumin (HSA), its stability, high solubility, neutrality in many biochemical reactions and low cost. In protein binding study, absorption spectroscopy titration is a known method used in studying the conformational changes in proteins, and this protein is characterized by an intense absorbance peak at 280 nm depicting the microenvironment around tyrosine and tryptophan residue polarity.
The absorbance assay of albumin binding is a very simple method used in identifying the conformational changes in protein. […] A stock solution of bovine serum albumin (BSA) was prepared by dissolving an appropriate amount of BSA in phosphate buffer saline solution (pH 7.2) under constant stirring for 1 h at 25 °C. It was kept at 4 °C and used within four days. […] The stock solution of the complex was prepared by dissolving 1 mmol of the complexes in DMSO. The absorption titration assay was done by adding different concentrations (0–10 µM) of the complexes to a constant BSA concentration (6 µM). The sample solution was incubated after each addition of the concentrations for 10 min at 25 °C before recording the absorbance at λmax 280 nm.

[10] = intrinsic binding constant, absorption titration, PBS pH 7.2

bovine serum albumin (BSA), sequence (P02769 25-607): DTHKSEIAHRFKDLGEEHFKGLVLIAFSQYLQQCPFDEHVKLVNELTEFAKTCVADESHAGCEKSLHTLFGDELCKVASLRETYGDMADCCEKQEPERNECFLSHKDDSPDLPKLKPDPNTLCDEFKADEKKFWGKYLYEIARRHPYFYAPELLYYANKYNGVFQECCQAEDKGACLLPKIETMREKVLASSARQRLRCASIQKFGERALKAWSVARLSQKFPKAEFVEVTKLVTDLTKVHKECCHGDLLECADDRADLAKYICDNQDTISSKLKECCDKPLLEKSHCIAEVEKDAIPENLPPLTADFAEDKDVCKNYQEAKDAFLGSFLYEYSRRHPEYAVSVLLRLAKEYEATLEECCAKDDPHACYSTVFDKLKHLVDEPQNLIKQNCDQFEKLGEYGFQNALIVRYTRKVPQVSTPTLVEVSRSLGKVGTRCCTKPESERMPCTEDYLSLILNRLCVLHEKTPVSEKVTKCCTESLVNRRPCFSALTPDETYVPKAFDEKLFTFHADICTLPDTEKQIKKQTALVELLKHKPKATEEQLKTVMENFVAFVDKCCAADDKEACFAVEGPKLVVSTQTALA

Compound | Minimum inhibitory concentration, EC [1] [µg/mL] | Minimum inhibitory concentration, PA [2] [µg/mL] | Minimum inhibitory concentration, ST [3] [µg/mL] | Minimum inhibitory concentration, SA [4] [µg/mL] | Minimum inhibitory concentration, MRSA [5] [µg/mL] | Antioxidant (IC50 mg/mL) FRAP [6] [mg/mL] | CT-DNA-Cmp. Kb (M^−1) × 10^5 [7, 10] | CT-DNA-EB-Complex Ksv (M^−1) × 10^4 ([8]; EB displacement) | binding constant (Kbin) to CT-DNA ([8]; as given in the text, EB displacement, double-logarithmic plot) [M⁻¹] | CT-DNA-EB-Complex Kq (M^−1S^−1) × 10^12 [8] | CT-DNA-EB-Complex Kbin (M^−1) × 10^5 [8] | Protein-Complex Kb (M^−1) × 10^4 [9] | hypochromic shift in the absorption bands on addition of CT-DNA ([7]; absorption titration with CT-DNA) | Protein-Complex Kb (M^−1) × 10^4 ([9]; BSA absorption titration, 280 nm, 25 °C) | CT-DNA-Cmp. Kb (M^−1) × 10^5 ([7]; pH 7.2) | MIC ([1]; Escherichia coli, ATCC25922, read-out: Minimum inhibitory concentration, EC) [µg/mL] | MIC ([4]; Staphylococcus aureus, ATCC25923, read-out: Minimum inhibitory concentration, SA) [µg/mL]
C(=NCc1cccs1)c1ccc2ccccc2n1.C(=NCc1cccs1)c1ccc2ccccc2n1.[Ag+].[O-][Cl+3]([O-])([O-])[O-] [Complex Q10, [Ag(L5)2]ClO4] | 6.25 | 1.6 | 100 | 25 | 1000 | 0.98 ± 0.055 | 5.00 (M^−1) × 10^5 | 2.98 (M^−1) × 10^4 | 961000 | 2.98 (M^−1S^−1) × 10^12 | 9.61 (M^−1) × 10^5 | 8.01 (M^−1) × 10^4 |  |  |  |  | 
Clc1ccc(N=Cc2ccc3ccccc3n2)cc1.Clc1ccc(N=Cc2ccc3ccccc3n2)cc1.O=[N+]([O-])[O-].[Ag+] [Complex Q3, [Ag(L3)2]NO3] | 25 | 12.5 | 50 | 50 | 50 | 4.75 ± 0.0042 | 15.7 (M^−1) × 10^5 | 3.93 (M^−1) × 10^4 |  | 3.93 (M^−1S^−1) × 10^12 | 9.17 (M^−1) × 10^5 | 5.11 (M^−1) × 10^4 |  |  |  |  | 
Clc1ccc(N=Cc2ccc3ccccc3n2)cc1.Clc1ccc(N=Cc2ccc3ccccc3n2)cc1.O=S(=O)([O-])C(F)(F)F.[Ag+] [Complex Q13, [Ag(L3)2]CF3SO3] | 25 | 12.5 | 50 | 25 | 50 | 2.22 ± 0.0055 | 4.29 (M^−1) × 10^5 | 3.33 (M^−1) × 10^4 |  | 3.33 (M^−1S^−1) × 10^12 | 5.74 (M^−1) × 10^5 | 2.89 (M^−1) × 10^4 |  |  |  |  | 
[Ag+].[O-][Cl+3]([O-])([O-])[O-] [AgClO4, silver perchlorate, reference compound] | 25 | 0.8 | 0.2 | 3.125 | 6.25 | 0.88 ± 0.051 | 3.30 (M^−1) × 10^5 | 3.31 (M^−1) × 10^4 |  | 3.31 (M^−1S^−1) × 10^12 | 6.00 (M^−1) × 10^5 |  | 23.64–50.86% | 4.82 (M^−1) × 10^4 |  |  | 
O=[N+]([O-])[O-].[Ag+] [AgNO3, silver nitrate, reference compound] | 0.8 | 12.5 | 1000 | 3.125 | 0.2 | 1.43 ± 0.03 |  | 3.12 (M^−1) × 10^4 |  | 3.12 (M^−1S^−1) × 10^12 | 4.50 (M^−1) × 10^5 | 4.49 (M^−1) × 10^4 |  |  | 3.00 (M^−1) × 10^5 |  | 
Fc1ccccc1/N=C/c1ccc2ccccc2n1 [Complex L1, (E)-N-(2-fluorophenyl)-1-(quinolin-2-yl)methanimine] |  |  |  |  |  | 22.42 ± 0.0048 | 1.38 (M^−1) × 10^5 |  |  |  |  |  |  |  |  | 1000 | 100
